Assay results published in the kinase profiling compilation of Christmann-Franck et al. (2016).

These compounds were tested against GRK4 (human) (UniProt P32298) (assay: radiometric filter-binding kinase assay, Kinase HotSpot). Conditions: compound 0.5 µM; ATP 10 µM.

Question: Which residual activity does the source give for O=C1NC(=O)c2cc(Nc3ccc(F)cc3)c(Nc3ccc(F)cc3)cc21 here?
Answer: 103%

Question: For N#CCCc1ccc2c(c1)-c1[nH]c3ccc([N+](=O)[O-])cc3c1CC(=O)N2, which residual activity is on record?
Answer: 101%

What follows are compounds tested against PRKCZ (human) (UniProt Q05513) in the same assay as above. Conditions: compound 0.5 µM; ATP 10 µM.

Question: COc1cc2c(cc1OC)-c1[nH]nc(Nc3cccc(F)c3)c1C2 was tested. Which residual activity did it give?
Answer: 99.7%

Question: How did the residual activity turn out when Cn1cc(/C=C2\C(=O)Nc3ccc(S(N)(=O)=O)cc32)c2ccccc21 was run?
Answer: 105%

Question: How did the residual activity turn out when COc1cccc(-c2cc(=O)c3ccccc3o2)c1N was run?
Answer: 99.1%

Question: With O=C1NC(=O)c2cc(Nc3ccc(F)cc3)c(Nc3ccc(F)cc3)cc21 as the compound, how does the residual activity read?
Answer: 100%

Question: With N#CCCc1ccc2c(c1)-c1[nH]c3ccc([N+](=O)[O-])cc3c1CC(=O)N2 as the compound, how does the residual activity read?
Answer: 83.4%

These compounds were tested against PRKCA (human) (UniProt P17252) in the same assay as above. Conditions: compound 0.5 µM; ATP 10 µM.

Question: How did the residual activity turn out when COc1cc2c(cc1OC)-c1[nH]nc(Nc3cccc(F)c3)c1C2 was run?
Answer: 99.2%

Question: Cn1cc(/C=C2\C(=O)Nc3ccc(S(N)(=O)=O)cc32)c2ccccc21 was tested. Which residual activity did it give?
Answer: 123%

Question: How did the residual activity turn out when COc1cccc(-c2cc(=O)c3ccccc3o2)c1N was run?
Answer: 102%

Question: Which residual activity does the source give for O=C1NC(=O)c2cc(Nc3ccc(F)cc3)c(Nc3ccc(F)cc3)cc21 here?
Answer: 99.3%

Question: For N#CCCc1ccc2c(c1)-c1[nH]c3ccc([N+](=O)[O-])cc3c1CC(=O)N2, which residual activity is on record?
Answer: 80.9%

The compounds below were run against PTK2 (human) (UniProt Q05397) in the same assay as above. Conditions: compound 0.5 µM; ATP 10 µM.
Sequence of PTK2 (human) (Q05397 whole entry, looked up): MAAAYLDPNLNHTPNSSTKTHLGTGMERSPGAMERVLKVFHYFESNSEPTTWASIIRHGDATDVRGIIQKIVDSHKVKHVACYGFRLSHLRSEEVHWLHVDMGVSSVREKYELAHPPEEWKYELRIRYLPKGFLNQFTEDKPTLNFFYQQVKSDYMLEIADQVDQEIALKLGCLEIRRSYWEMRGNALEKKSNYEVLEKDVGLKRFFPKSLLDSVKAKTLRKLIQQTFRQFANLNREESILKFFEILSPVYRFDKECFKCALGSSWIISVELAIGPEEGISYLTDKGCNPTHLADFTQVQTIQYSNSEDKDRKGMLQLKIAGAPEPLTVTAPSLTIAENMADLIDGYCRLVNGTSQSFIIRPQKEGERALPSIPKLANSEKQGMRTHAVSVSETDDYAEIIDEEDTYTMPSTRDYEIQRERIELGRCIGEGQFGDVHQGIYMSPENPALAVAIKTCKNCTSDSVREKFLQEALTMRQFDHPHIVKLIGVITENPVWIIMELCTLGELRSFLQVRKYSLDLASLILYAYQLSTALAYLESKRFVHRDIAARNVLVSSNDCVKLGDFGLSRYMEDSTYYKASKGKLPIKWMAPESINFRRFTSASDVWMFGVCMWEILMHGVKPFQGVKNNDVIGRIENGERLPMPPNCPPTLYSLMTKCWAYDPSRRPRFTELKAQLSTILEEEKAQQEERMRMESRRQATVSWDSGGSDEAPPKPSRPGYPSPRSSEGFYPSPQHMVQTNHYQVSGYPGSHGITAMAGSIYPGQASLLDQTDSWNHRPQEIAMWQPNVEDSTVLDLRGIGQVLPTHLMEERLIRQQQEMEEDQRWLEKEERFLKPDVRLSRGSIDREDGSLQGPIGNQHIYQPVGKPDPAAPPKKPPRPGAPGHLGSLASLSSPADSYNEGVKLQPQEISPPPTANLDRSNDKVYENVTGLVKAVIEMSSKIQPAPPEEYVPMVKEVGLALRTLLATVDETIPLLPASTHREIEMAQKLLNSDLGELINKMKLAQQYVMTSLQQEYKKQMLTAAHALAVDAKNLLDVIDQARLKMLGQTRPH

Question: How did the residual activity turn out when COc1cc2c(cc1OC)-c1[nH]nc(Nc3cccc(F)c3)c1C2 was run?
Answer: 88.2%

Question: For Cn1cc(/C=C2\C(=O)Nc3ccc(S(N)(=O)=O)cc32)c2ccccc21, which residual activity is on record?
Answer: 94.1%

Question: How did the residual activity turn out when COc1cccc(-c2cc(=O)c3ccccc3o2)c1N was run?
Answer: 98.2%

Question: O=C1NC(=O)c2cc(Nc3ccc(F)cc3)c(Nc3ccc(F)cc3)cc21 was tested. Which residual activity did it give?
Answer: 96%

Question: N#CCCc1ccc2c(c1)-c1[nH]c3ccc([N+](=O)[O-])cc3c1CC(=O)N2 was tested. Which residual activity did it give?
Answer: 82.2%

Each compound was assayed against FGFR1 (human) (UniProt P11362) in the same assay as above. Conditions: compound 0.5 µM; ATP 10 µM.
Sequence of FGFR1 (human) (P11362 whole entry, looked up): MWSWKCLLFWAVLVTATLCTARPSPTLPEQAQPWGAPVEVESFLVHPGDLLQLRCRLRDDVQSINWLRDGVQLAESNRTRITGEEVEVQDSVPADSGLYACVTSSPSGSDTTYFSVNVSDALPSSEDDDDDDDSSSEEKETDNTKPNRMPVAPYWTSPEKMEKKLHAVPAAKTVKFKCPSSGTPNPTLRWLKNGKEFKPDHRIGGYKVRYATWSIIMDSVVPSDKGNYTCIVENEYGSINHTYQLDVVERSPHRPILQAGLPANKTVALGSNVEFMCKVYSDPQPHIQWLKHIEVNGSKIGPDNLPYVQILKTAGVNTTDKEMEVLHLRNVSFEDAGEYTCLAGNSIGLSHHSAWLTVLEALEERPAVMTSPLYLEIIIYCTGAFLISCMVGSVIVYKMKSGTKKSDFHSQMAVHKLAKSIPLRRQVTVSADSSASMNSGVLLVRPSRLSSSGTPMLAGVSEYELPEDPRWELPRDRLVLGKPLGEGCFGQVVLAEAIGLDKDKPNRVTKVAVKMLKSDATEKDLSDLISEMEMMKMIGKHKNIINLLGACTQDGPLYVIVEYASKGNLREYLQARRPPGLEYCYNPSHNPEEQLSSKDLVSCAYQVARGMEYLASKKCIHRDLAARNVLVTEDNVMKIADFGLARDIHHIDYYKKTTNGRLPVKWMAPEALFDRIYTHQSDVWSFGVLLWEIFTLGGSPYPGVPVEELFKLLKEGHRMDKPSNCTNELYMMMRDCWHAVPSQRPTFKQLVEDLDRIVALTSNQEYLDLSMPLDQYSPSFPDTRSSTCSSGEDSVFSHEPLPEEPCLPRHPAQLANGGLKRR

Question: COc1cc2c(cc1OC)-c1[nH]nc(Nc3cccc(F)c3)c1C2 was tested. Which residual activity did it give?
Answer: 99.2%

Question: How did the residual activity turn out when Cn1cc(/C=C2\C(=O)Nc3ccc(S(N)(=O)=O)cc32)c2ccccc21 was run?
Answer: 50.2%

Question: COc1cccc(-c2cc(=O)c3ccccc3o2)c1N was tested. Which residual activity did it give?
Answer: 96.8%

Question: For O=C1NC(=O)c2cc(Nc3ccc(F)cc3)c(Nc3ccc(F)cc3)cc21, which residual activity is on record?
Answer: 92.1%

Question: N#CCCc1ccc2c(c1)-c1[nH]c3ccc([N+](=O)[O-])cc3c1CC(=O)N2 was tested. Which residual activity did it give?
Answer: 91.9%

Each compound was assayed against RPS6KA2 KD1 KD2 (human) (UniProt Q15349) in the same assay as above. Conditions: compound 0.5 µM; ATP 10 µM.

Question: For COc1cc2c(cc1OC)-c1[nH]nc(Nc3cccc(F)c3)c1C2, which residual activity is on record?
Answer: 91.4%

Question: Which residual activity does the source give for Cn1cc(/C=C2\C(=O)Nc3ccc(S(N)(=O)=O)cc32)c2ccccc21 here?
Answer: 9.26%

Question: For COc1cccc(-c2cc(=O)c3ccccc3o2)c1N, which residual activity is on record?
Answer: 96.4%

Question: O=C1NC(=O)c2cc(Nc3ccc(F)cc3)c(Nc3ccc(F)cc3)cc21 was tested. Which residual activity did it give?
Answer: 98.7%

Question: Which residual activity does the source give for N#CCCc1ccc2c(c1)-c1[nH]c3ccc([N+](=O)[O-])cc3c1CC(=O)N2 here?
Answer: 24.4%

What follows are compounds tested against CAMK1 (human) (UniProt Q14012) in the same assay as above. Conditions: compound 0.5 µM; ATP 10 µM.
Sequence of CAMK1 (human) (Q14012 whole entry, looked up): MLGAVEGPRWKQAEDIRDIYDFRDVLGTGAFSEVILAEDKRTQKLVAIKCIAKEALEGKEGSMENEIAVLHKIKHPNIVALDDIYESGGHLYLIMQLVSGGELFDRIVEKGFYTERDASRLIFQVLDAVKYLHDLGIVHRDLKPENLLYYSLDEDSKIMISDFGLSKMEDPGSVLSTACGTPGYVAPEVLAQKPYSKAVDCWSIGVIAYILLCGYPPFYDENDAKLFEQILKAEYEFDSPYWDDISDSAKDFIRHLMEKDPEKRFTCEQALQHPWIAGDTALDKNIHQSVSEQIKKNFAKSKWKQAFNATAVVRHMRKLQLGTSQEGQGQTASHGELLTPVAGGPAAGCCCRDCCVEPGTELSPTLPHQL

Question: For COc1cc2c(cc1OC)-c1[nH]nc(Nc3cccc(F)c3)c1C2, which residual activity is on record?
Answer: 98.4%

Question: How did the residual activity turn out when Cn1cc(/C=C2\C(=O)Nc3ccc(S(N)(=O)=O)cc32)c2ccccc21 was run?
Answer: 75.7%

Question: How did the residual activity turn out when COc1cccc(-c2cc(=O)c3ccccc3o2)c1N was run?
Answer: 98.5%

Question: With O=C1NC(=O)c2cc(Nc3ccc(F)cc3)c(Nc3ccc(F)cc3)cc21 as the compound, how does the residual activity read?
Answer: 104%

Question: With N#CCCc1ccc2c(c1)-c1[nH]c3ccc([N+](=O)[O-])cc3c1CC(=O)N2 as the compound, how does the residual activity read?
Answer: 96%

These compounds were tested against HIPK4 (human) (UniProt Q8NE63) in the same assay as above. Conditions: compound 0.5 µM; ATP 10 µM.

Question: How did the residual activity turn out when COc1cc2c(cc1OC)-c1[nH]nc(Nc3cccc(F)c3)c1C2 was run?
Answer: 90%

Question: With Cn1cc(/C=C2\C(=O)Nc3ccc(S(N)(=O)=O)cc32)c2ccccc21 as the compound, how does the residual activity read?
Answer: 86.2%

Question: With COc1cccc(-c2cc(=O)c3ccccc3o2)c1N as the compound, how does the residual activity read?
Answer: 98.6%

Question: How did the residual activity turn out when O=C1NC(=O)c2cc(Nc3ccc(F)cc3)c(Nc3ccc(F)cc3)cc21 was run?
Answer: 82.5%

Question: N#CCCc1ccc2c(c1)-c1[nH]c3ccc([N+](=O)[O-])cc3c1CC(=O)N2 was tested. Which residual activity did it give?
Answer: 113%

The compounds below were run against NEK1 (human) (UniProt Q96PY6) in the same assay as above. Conditions: compound 0.5 µM; ATP 10 µM.

Question: With COc1cc2c(cc1OC)-c1[nH]nc(Nc3cccc(F)c3)c1C2 as the compound, how does the residual activity read?
Answer: 93%

Question: For Cn1cc(/C=C2\C(=O)Nc3ccc(S(N)(=O)=O)cc32)c2ccccc21, which residual activity is on record?
Answer: 68.5%

Question: For COc1cccc(-c2cc(=O)c3ccccc3o2)c1N, which residual activity is on record?
Answer: 81.2%

Question: How did the residual activity turn out when O=C1NC(=O)c2cc(Nc3ccc(F)cc3)c(Nc3ccc(F)cc3)cc21 was run?
Answer: 88%

Question: With N#CCCc1ccc2c(c1)-c1[nH]c3ccc([N+](=O)[O-])cc3c1CC(=O)N2 as the compound, how does the residual activity read?
Answer: 132%

The compounds below were run against CDK9 CCNK (human) (UniProt O75909+P50750) in the same assay as above. Conditions: compound 0.5 µM; ATP 10 µM.
Sequence of CDK9 CCNK (human) (O75909 whole entry, looked up): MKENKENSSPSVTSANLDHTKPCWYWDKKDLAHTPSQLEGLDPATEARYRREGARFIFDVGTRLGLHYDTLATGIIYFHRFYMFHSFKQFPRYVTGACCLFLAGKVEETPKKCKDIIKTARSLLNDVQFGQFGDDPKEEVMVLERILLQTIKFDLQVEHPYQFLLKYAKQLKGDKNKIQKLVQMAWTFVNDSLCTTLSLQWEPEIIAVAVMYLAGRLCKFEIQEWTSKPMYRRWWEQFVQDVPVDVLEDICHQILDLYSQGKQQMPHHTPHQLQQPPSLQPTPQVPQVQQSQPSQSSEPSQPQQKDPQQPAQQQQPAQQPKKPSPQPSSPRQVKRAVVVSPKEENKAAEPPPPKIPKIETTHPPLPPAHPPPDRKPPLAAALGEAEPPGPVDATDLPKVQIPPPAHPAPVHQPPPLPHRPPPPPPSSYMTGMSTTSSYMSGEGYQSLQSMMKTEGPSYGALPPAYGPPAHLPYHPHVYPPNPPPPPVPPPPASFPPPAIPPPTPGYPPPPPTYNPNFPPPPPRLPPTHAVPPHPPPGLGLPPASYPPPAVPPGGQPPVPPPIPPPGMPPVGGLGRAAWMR
Sequence of CDK9 CCNK (human) (P50750 whole entry, looked up): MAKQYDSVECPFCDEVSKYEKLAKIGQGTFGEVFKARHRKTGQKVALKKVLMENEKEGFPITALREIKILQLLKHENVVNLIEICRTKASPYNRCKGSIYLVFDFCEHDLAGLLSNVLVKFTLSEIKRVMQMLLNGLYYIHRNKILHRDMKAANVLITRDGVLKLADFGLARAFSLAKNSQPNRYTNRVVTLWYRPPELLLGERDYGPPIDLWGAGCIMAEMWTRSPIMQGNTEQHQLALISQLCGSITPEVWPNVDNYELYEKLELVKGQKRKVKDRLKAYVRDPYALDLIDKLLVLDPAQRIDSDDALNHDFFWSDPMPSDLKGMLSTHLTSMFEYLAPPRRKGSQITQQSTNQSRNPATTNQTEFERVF

Question: For COc1cc2c(cc1OC)-c1[nH]nc(Nc3cccc(F)c3)c1C2, which residual activity is on record?
Answer: 91.9%

Question: With Cn1cc(/C=C2\C(=O)Nc3ccc(S(N)(=O)=O)cc32)c2ccccc21 as the compound, how does the residual activity read?
Answer: 86.8%

Question: COc1cccc(-c2cc(=O)c3ccccc3o2)c1N was tested. Which residual activity did it give?
Answer: 98.3%

Question: O=C1NC(=O)c2cc(Nc3ccc(F)cc3)c(Nc3ccc(F)cc3)cc21 was tested. Which residual activity did it give?
Answer: 90.8%

Question: Which residual activity does the source give for N#CCCc1ccc2c(c1)-c1[nH]c3ccc([N+](=O)[O-])cc3c1CC(=O)N2 here?
Answer: 23.7%

What follows are compounds tested against PTK2B (human) (UniProt Q14289) in the same assay as above. Conditions: compound 0.5 µM; ATP 10 µM.
Sequence of PTK2B (human) (Q14289 whole entry, looked up): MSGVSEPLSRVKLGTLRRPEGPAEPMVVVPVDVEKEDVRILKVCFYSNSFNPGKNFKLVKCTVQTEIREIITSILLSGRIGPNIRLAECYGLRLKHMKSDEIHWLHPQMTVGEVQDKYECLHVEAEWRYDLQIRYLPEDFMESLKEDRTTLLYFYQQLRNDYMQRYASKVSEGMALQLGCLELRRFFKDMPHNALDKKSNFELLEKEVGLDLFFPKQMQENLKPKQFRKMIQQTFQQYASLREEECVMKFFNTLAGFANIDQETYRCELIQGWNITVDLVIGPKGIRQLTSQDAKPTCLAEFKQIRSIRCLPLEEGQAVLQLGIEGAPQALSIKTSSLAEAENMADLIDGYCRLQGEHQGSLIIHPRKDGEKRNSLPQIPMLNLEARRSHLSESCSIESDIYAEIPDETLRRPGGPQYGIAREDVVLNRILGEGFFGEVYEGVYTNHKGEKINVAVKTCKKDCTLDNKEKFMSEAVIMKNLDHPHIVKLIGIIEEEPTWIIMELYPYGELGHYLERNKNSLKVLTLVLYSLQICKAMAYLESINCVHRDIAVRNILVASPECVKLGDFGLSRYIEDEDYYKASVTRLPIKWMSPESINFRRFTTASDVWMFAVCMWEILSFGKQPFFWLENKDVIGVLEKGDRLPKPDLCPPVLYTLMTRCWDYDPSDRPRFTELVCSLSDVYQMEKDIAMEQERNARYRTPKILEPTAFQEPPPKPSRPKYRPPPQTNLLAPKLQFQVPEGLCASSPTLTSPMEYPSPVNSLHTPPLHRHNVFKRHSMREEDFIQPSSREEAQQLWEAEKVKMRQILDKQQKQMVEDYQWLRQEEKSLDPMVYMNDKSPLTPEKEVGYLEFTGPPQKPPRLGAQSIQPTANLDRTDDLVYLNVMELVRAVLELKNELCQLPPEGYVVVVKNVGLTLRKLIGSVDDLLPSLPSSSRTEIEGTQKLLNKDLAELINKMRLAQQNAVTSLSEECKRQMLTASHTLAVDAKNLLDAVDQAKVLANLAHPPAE

Question: Which residual activity does the source give for COc1cc2c(cc1OC)-c1[nH]nc(Nc3cccc(F)c3)c1C2 here?
Answer: 98%

Question: Which residual activity does the source give for Cn1cc(/C=C2\C(=O)Nc3ccc(S(N)(=O)=O)cc32)c2ccccc21 here?
Answer: 43.1%

Question: How did the residual activity turn out when COc1cccc(-c2cc(=O)c3ccccc3o2)c1N was run?
Answer: 91.2%

Question: For O=C1NC(=O)c2cc(Nc3ccc(F)cc3)c(Nc3ccc(F)cc3)cc21, which residual activity is on record?
Answer: 111%

Question: Which residual activity does the source give for N#CCCc1ccc2c(c1)-c1[nH]c3ccc([N+](=O)[O-])cc3c1CC(=O)N2 here?
Answer: 62.9%
